The source of these data is PubChem BioAssay (NCI).

Structures are written as SMILES.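 The compound was tested at five concentrations on cells cultured in 96-well plates, with a 48-hour exposure period. Here, GI50 denotes the concentration required for 50% inhibition of growth. TGI: concentration producing complete growth inhibition.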

Among the test systems are OVCAR-8 ovarian; MALME-3M melanoma; IGROV1 ovarian; UO-31 renal; OVCAR-3 ovarian; UACC-62 melanoma; SK-MEL-2 melanoma; K-562 leukemia; MDA-MB-435; MDA-MB-231 breast.
Experiment in all cases: NCI anticancer screen, dose series, 48 h

For `Cc1cc2c(=O)cc(-c3ccncc3)oc2c(C(N)=O)c1C`, the TGI in the assay with OVCAR-8 ovarian, in the assay on MALME-3M melanoma, in the assay on IGROV1 ovarian, with UO-31 renal, with OVCAR-3 ovarian and in the assay on UACC-62 melanoma was over 100 µM throughout. In addition, the TGI in the assay on SK-MEL-2 melanoma is over 100 µM.

As to `C[C@H](O)CCC(=O)c1ccoc1`, the TGI in the assay with OVCAR-8 ovarian, in the assay on MALME-3M melanoma, with IGROV1 ovarian, with UO-31 renal, in the assay with OVCAR-3 ovarian and in the assay on K-562 leukemia was over 100 µM each time. Further, the TGI in the assay with UACC-62 melanoma and in the assay with SK-MEL-2 melanoma was over 100 µM in each case.

For the molecule `C/C(=N\NC(N)=S)c1ccc(Oc2ccccc2)cc1`, the TGI with OVCAR-8 ovarian was found to be 52.3 µM; in the assay on IGROV1 ovarian, 12.5 µM; with OVCAR-3 ovarian, 22.9 µM; in the assay with K-562 leukemia, 21.5 µM; with UACC-62 melanoma, 28.8 µM.

Regarding `Cc1c(Cl)ccc2[s+]snc12`, the TGI with OVCAR-8 ovarian was 57.1 µM; with MALME-3M melanoma it was over 100 µM; with IGROV1 ovarian, over 100 µM; with UO-31 renal, over 100 µM; in the assay with OVCAR-3 ovarian it was over 100 µM; in the assay with K-562 leukemia, 73.7 µM. Further, the TGI in the assay with UACC-62 melanoma was found to be 45.2 µM; in the assay with SK-MEL-2 melanoma it was 77.3 µM.

For `CC(=O)[O-].O=C([CH-]C(=O)c1ccccc1)c1ccccc1.O=C([CH-]C(=O)c1ccccc1)c1ccccc1.[Dy+3]`, the GI50 with OVCAR-8 ovarian was 4.78 µM; in the assay on MALME-3M melanoma, 21.8 µM; in the assay on IGROV1 ovarian, 18.5 µM; in the assay on UO-31 renal, 8.35 µM; in the assay with OVCAR-3 ovarian, 13.9 µM; with K-562 leukemia it was 3.55 µM. Also, the GI50 in the assay on UACC-62 melanoma was 9.15 µM; with SK-MEL-2 melanoma, 14.9 µM. For the same molecule, the TGI in the assay on OVCAR-8 ovarian was determined as 36.5 µM; in the assay with MALME-3M melanoma it was 67.9 µM; in the assay with IGROV1 ovarian, 93.8 µM; in the assay with UO-31 renal, 32.5 µM; in the assay with OVCAR-3 ovarian, 51.8 µM; in the assay with K-562 leukemia it was 17.8 µM. Besides, the TGI with UACC-62 melanoma came to 48.1 µM; in the assay with SK-MEL-2 melanoma it was 37.4 µM.

Consider `CC[C@H]1CNC(=O)CC1CC(=O)OC` (stereo not given in full), for which the TGI with OVCAR-8 ovarian, in the assay with MALME-3M melanoma, with IGROV1 ovarian, in the assay on UO-31 renal, in the assay with UACC-62 melanoma and in the assay on SK-MEL-2 melanoma was over 100 µM each time.

As for `COc1cc(Br)c(C2OCCCO2)cc1OCc1ccccc1`, the TGI in the assay on OVCAR-8 ovarian, with IGROV1 ovarian, with UO-31 renal, in the assay with OVCAR-3 ovarian, in the assay with K-562 leukemia and in the assay with UACC-62 melanoma was over 100 µM in each case. The TGI in the assay with SK-MEL-2 melanoma was over 100 µM.

For `CCn1c(O)c(C(=O)Nc2cccs2)c(=O)n(CC)c1=S`, the TGI in the assay with OVCAR-8 ovarian turned out to be 60.2 µM; with MALME-3M melanoma, 38.6 µM; in the assay on IGROV1 ovarian it was 60.9 µM; in the assay on OVCAR-3 ovarian, 32.2 µM; with K-562 leukemia it was 53.6 µM; in the assay on UACC-62 melanoma, 29.5 µM. The molecule further showed a TGI with SK-MEL-2 melanoma of 32.8 µM.

As for `CC1(C)OC2OC(/C=C/[N+](=O)[O-])C3OC(C)(C)OC3C2O1` (stereo not given), the TGI with OVCAR-8 ovarian is 40.9 µM; with MALME-3M melanoma, 10.8 µM; in the assay with IGROV1 ovarian, over 74.4 µM; in the assay with UO-31 renal, 34.8 µM; with OVCAR-3 ovarian, 34.7 µM; in the assay on K-562 leukemia it was 27.5 µM. In addition, the TGI turned out to be 28.6 µM in the assay on UACC-62 melanoma and 32.6 µM in the assay on SK-MEL-2 melanoma.

Take `O=C1N(c2ccccc2)C2(O)C(=O)c3ccccc3C2(O)N1c1ccccc1` (stereo not given): the TGI in the assay with OVCAR-8 ovarian, with MALME-3M melanoma, in the assay on IGROV1 ovarian, with UO-31 renal, in the assay on OVCAR-3 ovarian and in the assay with K-562 leukemia was over 100 µM in each case. For the same molecule, the TGI in the assay with UACC-62 melanoma and in the assay on SK-MEL-2 melanoma was over 100 µM each time.

`COc1ccc2c(c1)c(-c1nc(-c3cn(C)c4ncccc34)cs1)cn2CCCCN1CCCCC1`: the GI50 is 1.66 µM in the assay with MDA-MB-435, 1.43 µM in the assay on UO-31 renal and 1.7 µM in the assay with OVCAR-3 ovarian. The TGI with MDA-MB-435 stood at 3.04 µM; in the assay on UO-31 renal it was 2.77 µM; in the assay on OVCAR-3 ovarian it was 3.15 µM.

For `N#CC1(C2CC(=O)N(c3ccccc3)C2=O)CCCCC1=O` (stereo not given), the TGI in the assay on OVCAR-8 ovarian, with MALME-3M melanoma, with IGROV1 ovarian, in the assay with UO-31 renal, in the assay on OVCAR-3 ovarian and with K-562 leukemia was over 100 µM each time. In the assay with UACC-62 melanoma, this molecule showed a TGI of over 100 µM.

Take `COc1cc(CC2c3cc(OC)c(OC)cc3CCN2C)c(C(=O)O)cc1OC` (stereo not given): the TGI with OVCAR-8 ovarian, with MALME-3M melanoma, in the assay with UO-31 renal, in the assay with OVCAR-3 ovarian, with K-562 leukemia and with UACC-62 melanoma was over 100 µM throughout. Also, in the assay on SK-MEL-2 melanoma, the TGI was over 100 µM.

Turning to `CCOc1ccc(/C=C/C(=O)c2sc(NNC(C)=O)nc2C)cc1`, the TGI in the assay with OVCAR-8 ovarian, with MALME-3M melanoma, with IGROV1 ovarian, in the assay with UO-31 renal, with OVCAR-3 ovarian and in the assay with K-562 leukemia was over 100 µM each time. The TGI in the assay with UACC-62 melanoma and with SK-MEL-2 melanoma was over 100 µM in each case.

On to `C=CN(C(=O)N1CCN(c2cc3c(cc2F)c(=O)c(C(=O)O)cn3C2CC2)CC1)c1nc(-c2ccc(C)cc2)cs1`, for which the GI50 is 3.33 µM with OVCAR-8 ovarian; 2.99 µM in the assay with MDA-MB-231 breast; 3.35 µM in the assay with MALME-3M melanoma; 3.42 µM in the assay on IGROV1 ovarian; 3.83 µM in the assay on OVCAR-3 ovarian; 1.96 µM in the assay on K-562 leukemia. Also, the TGI was 19.9 µM with OVCAR-8 ovarian; over 100 µM in the assay with MDA-MB-231 breast; over 100 µM with MALME-3M melanoma; over 100 µM in the assay on IGROV1 ovarian; over 100 µM with OVCAR-3 ovarian; over 100 µM in the assay with K-562 leukemia.

As to `O=C1C(=C2C(=O)c3ccccc3[N+]2=O)N([O-])c2ccccc21`, the TGI with OVCAR-8 ovarian is 50.4 µM; with IGROV1 ovarian, over 100 µM; in the assay on UO-31 renal it was over 100 µM; in the assay on OVCAR-3 ovarian it was 39.7 µM; in the assay with K-562 leukemia it was 50.1 µM.
